Assays:
Assay type in all cases: in vivo, KSN nude mice
[1] = test system: human esophageal squamous cell carcinoma cells TE-8; experiment: Biological distribution of biotinated αSQMG in tumor of tumor-bearing nude mice (TRITC-avidin staining of tumor segments); conditions: intravenous 40, 20 and 2 mg/kg, FIG. 1
Description: 1×10^6 of human esophageal squamous cell carcinoma cells TE-8 were transplanted into the right femoral region of 11 male KSN nude mice (Japan SLC, Inc.), and the mice were bred to form a tumor mass of about […] volume.
Thereafter, biotinated αSQMG C18:0 (formula XI) was dissolved in physiological saline solution, and 0.1 mL of the solution per administration was intravenously administered to each group comprising three mice so that the amount of the biotinated αSQMG C18:0 could be 40 mg/kg, 20 mg/kg, and 2 mg/kg. To two reference tumor bearing mice, physiological saline was administered. […]
In order to evaluate a tumor region which emits fluorescence due to TRITC, binarization imaging was performed with use of Photoshop. Thereafter, a portion (fraction) containing tumor tissues was selected from the visual field, and the number of pixels of a TRITC positive region (black color region) and the entire region were counted and the ratio of the positive region was calculated according to the formula:
The proportion (%) of biotinated αSQAP detected region=[the area of the black color region (region where the biotinated αSQMG was detected)]/[the area of the whole of the selected fraction]×100=[the number of pixels in the TRITC positive region]/[the number of pixels in the whole fraction]×100 (%) formula (A) […]

[2] = test system: human sophageal squamous cell carcinoma cells TE-8; experiment: Pharmacokinetics 2: concentration-time course in blood plasma, organs and tumor after intravenous administration (LC/MS); conditions: 1 mg/kg intravenous
Description: To eight-week-old male KSN nude mice (Japan SLC, Inc.), 2×10^6 of human colon carcinoma cells (SW480) were transplanted subcutaneously, two weeks later (body weight approximately 25 g, tumor volume approximately 200 mm^3) αSQMG C18:0 or αSQAP C18:0 was dissolved in physiological saline solution and administered intraperitoneally at a dose of 10 mg/kg (0.1 mL). After the administration, the mice were slaughtered chronologically with carbon dioxide; 30 minute, 1 hour, 2 hours, 4 hours, 12 hours, and 24 hours after the administration. Tissues of blood, liver, kidney, lung and spleen, and tumor tissue were then collected. At each time when tissues were collected, five animals were used. Whole blood was collected from postcaval vein with use of an injection needle wetted with heparin sodium injection solution (10,000 unit/10 mL) to obtain blood plasma by 20 minutes of centrifugation at 6,000 g. To 90 μl of blood plasma, 5 μl of an internal standard compound (αSQMG C16:0), 5 μl of distilled water, and 4 μl of phosphoric acid were added, and denatured protein by adding 96 μl of acetonitrile. To 0.2 mL of the solution, 600 μl of 10 mM ammonium acetate solution was added, and stirred sufficiently to obtain supernatant by centrifugation at 16,000 g for 15 minutes. The supernatant was subjected to solid-phase extraction operation as described below. The solid-phase extraction was performed by washing with 1000 μl of 10 mM ammonium acetate aqueous solution and 200 μl of 10 mM ammonium acetate aqueous solution containing 10% acetonitrile, followed by elution of a test compound with 200 μl of 10 mM ammonium acetate aqueous solution containing 70% acetonitrile with use of Empore (trademark) disc cartridge (3M Company, product number 4115SD). The compound was used as a LC/MS analytical sample. Each organ was extirpated after collection of blood and immediately frozen on dry ice. The frozen sample was subjected to frost shattering, and the weight was measured. Subsequently, ½-fold (weight ratio) internal standard compound (αSQMG C16:0) and distilled water were added, and 8-fold (weight ratio) extraction solution (2.5% NP-40, 2% phosphoric acid, 2 mM Eserine aqueous solution) was further added to the sample, followed by homogenization. The homogenized solution was subjected to protein denaturation with acetonitrile and solid phase extraction in the same manner as the above-mentioned treatment of blood plasma to obtain an analytical sample. 10 μl of the analytical sample was separated with a reverse phase HPLC system equipped with Capcell Pak MG column (particle diameter; 3 μm, column size; 2.1×50 mm, Shiseido Co., Ltd.). HPLC was performed with 68% acetonitrile and a single solvent of 10 mM ammonium acetate aqueous solution at a flow rate of 0.2 mL per minute. Mass spectrum was measured in a negative mode, and the peak area ratio of the internal standard compound was calculated by integration of the peak area from chromatogram corresponding to each ion by measuring a precursor ion; m/z=583.1, fragment ion; m/z=224.7 and m/z=298.8 for αSQMG C18:0, a precursor ion; m/z=567.1, fragment ion; m/z=224.7 and m/z=283.1 for αSQAP C18:0, and a precursor ion; m/z=555.1, fragment ion; m/z=224.7 and m/z=298.8 for a internal standard compound αSQMG C16:0. As a method of quantitative analysis, an internal standard analysis was adopted. More specifically, a standard curve was drawn based on the peak area ratio of the internal standard compound by analyzing the sample to which the test compound was added, to determine the quantity of the test compound. The pharmacokinetics of αSQAP C18:0 was tested by administering 1 mg/kg of αSQAP C18:0 to animals in the same manner as Example 3 except that human sophageal squamous cell carcinoma cells TE-8 were used as tumor of transplanted tumor model and that intravenous administration was adopted as substitute for interperitoneal administration.

[3] = test system: human colon carcinoma cells (SW480); experiment: Pharmacokinetics 1: concentration-time course in blood plasma, organs and tumor after intraperitoneal administration (LC/MS); conditions: 10 mg/kg intraperitoneal; for concentration in tumor tissues immediately after administration in comparison with other tissues / concentration in tumor tissues 24 hours after administration / residence in tumor tissues: SW480 tumor; for time of the highest concentration in blood plasma, liver, kidney, spleen and lung / time after administration at which concentration fell below the detection limit, blood plasma / time after administration at which concentration fell below the detection limit, kidney / time after administration at which concentration fell below the detection limit, liver / time after administration at which concentration fell below the detection limit, lung / time after administration at which concentration fell below the detection limit, spleen: SW480 tumor-bearing nude mice; for residence in tumor tissues: followed to 24 hours
Description: To eight-week-old male KSN nude mice (Japan SLC, Inc.), 2×10^6 of human colon carcinoma cells (SW480) were transplanted subcutaneously, two weeks later (body weight approximately 25 g, tumor volume approximately 200 mm^3) αSQMG C18:0 or αSQAP C18:0 was dissolved in physiological saline solution and administered intraperitoneally at a dose of 10 mg/kg (0.1 mL). After the administration, the mice were slaughtered chronologically with carbon dioxide; 30 minute, 1 hour, 2 hours, 4 hours, 12 hours, and 24 hours after the administration. Tissues of blood, liver, kidney, lung and spleen, and tumor tissue were then collected. At each time when tissues were collected, five animals were used.
Whole blood was collected from postcaval vein with use of an injection needle wetted with heparin sodium injection solution (10,000 unit/10 mL) to obtain blood plasma by 20 minutes of centrifugation at 6,000 g. To 90 μl of blood plasma, 5 μl of an internal standard compound (αSQMG C16:0), 5 μl of distilled water, and 4 μl of phosphoric acid were added, and denatured protein by adding 96 μl of acetonitrile. To 0.2 mL of the solution, 600 μl of 10 mM ammonium acetate solution was added, and stirred sufficiently to obtain supernatant by centrifugation at 16,000 g for 15 minutes. The supernatant was subjected to solid-phase extraction operation as described below. The solid-phase extraction was performed by washing with 1000 μl of 10 mM ammonium acetate aqueous solution and 200 μl of 10 mM ammonium acetate aqueous solution containing 10% acetonitrile, followed by elution of a test compound with 200 μl of 10 mM ammonium acetate aqueous solution containing 70% acetonitrile with use of Empore (trademark) disc cartridge (3M Company, product number 4115SD). The compound was used as a LC/MS analytical sample.
Each organ was extirpated after collection of blood and immediately frozen on dry ice. The frozen sample was subjected to frost shattering, and the weight was measured. Subsequently, ½-fold (weight ratio) internal standard compound (αSQMG C16:0) and distilled water were added, and 8-fold (weight ratio) extraction solution (2.5% NP-40, 2% phosphoric acid, 2 mM Eserine aqueous solution) was further added to the sample, followed by homogenization. The homogenized solution was subjected to protein denaturation with acetonitrile and solid phase extraction in the same manner as the above-mentioned treatment of blood plasma to obtain an analytical sample.
10 μl of the analytical sample was separated with a reverse phase HPLC system equipped with Capcell Pak MG column (particle diameter; 3 μm, column size; 2.1×50 mm, Shiseido Co., Ltd.). HPLC was performed with 68% acetonitrile and a single solvent of 10 mM ammonium acetate aqueous solution at a flow rate of 0.2 mL per minute. Mass spectrum was measured in a negative mode, and the peak area ratio of the internal standard compound was calculated by integration of the peak area from chromatogram corresponding to each ion by measuring a precursor ion; m/z=583.1, fragment ion; m/z=224.7 and m/z=298.8 for αSQMG C18:0, a precursor ion; m/z=567.1, fragment ion; m/z=224.7 and m/z=283.1 for αSQAP C18:0, and a precursor ion; m/z=555.1, fragment ion; m/z=224.7 and m/z=298.8 for a internal standard compound αSQMG C16:0. As a method of quantitative analysis, an internal standard analysis was adopted. More specifically, a standard curve was drawn based on the peak area ratio of the internal standard compound by analyzing the sample to which the test compound was added, to determine the quantity of the test compound.

Compound	tumor-resident amount ([1]; 9 hours after administration)	staining of tumor tissues (TRITC positive region) ([1]; tumor extracted 9 hours after administration, TE-8 tumor)	concentration in tumor tissue immediately after administration in comparison with other organs ([2]; TE-8 tumor)	time of the highest concentration in blood plasma, liver, spleen and lung ([2]; TE-8 tumor-bearing nude mice)	time after administration at which concentration fell below the detection limit, blood plasma ([2]; TE-8 tumor-bearing nude mice, blood plasma)	time after administration at which concentration fell below the detection limit, liver ([2]; TE-8 tumor-bearing nude mice, liver)	time after administration at which concentration fell below the detection limit, lung ([2]; TE-8 tumor-bearing nude mice, lung)	time after administration at which concentration fell below the detection limit, spleen ([2]; TE-8 tumor-bearing nude mice, spleen) [h]	concentration in tumor tissue after 24 hours ([2]; TE-8 tumor, 24 hours)	course of concentration in tumor tissue after two hours ([2]; TE-8 tumor, after two hours)	residence in tumor tissues ([2]; TE-8 tumor, followed to 24 hours)	concentration in tumor tissues immediately after administration in comparison with other tissues [3]	time of the highest concentration in blood plasma, liver, kidney, spleen and lung [3]	time after administration at which concentration fell below the detection limit, blood plasma [3]	time after administration at which concentration fell below the detection limit, kidney [3]	time after administration at which concentration fell below the detection limit, liver [3]	time after administration at which concentration fell below the detection limit, lung [3]	time after administration at which concentration fell below the detection limit, spleen [3]	concentration in tumor tissues 24 hours after administration [3]	residence in tumor tissues [3]
3-O-[4-O-(biotinyl-β-alanyl)-6-sulfo-α-D-quinovopyranosyl]-1-0-stearoyl-glycerol [biotinated αSQMG C18:0]	high	strongly stained according to the dose																		
CCCCCCCCCCCCCCCCCC(=O)OCCCO[C@H]1O[C@H](CS(=O)(=O)[O-])[C@@H](O)[C@H](O)[C@H]1O.[Na+] [αSQAP C18:0]			low	immediately after administration	two	two	two	24	detectable	no decrease tendency	resides for a long period	low	immediately after the administration	four	four	12 h	four	four	detectable	resides for a long period
CCCCCCCCCCCCCCCCCC(=O)OCC(O)CO[C@H]1O[C@H](CS(=O)(=O)[O-])[C@@H](O)[C@H](O)[C@H]1O.[Na+] (some centres unmarked) [αSQMG C18:0]												low	immediately after the administration	four	four	four	four	12 h	detectable	resides for a long period
